From ChEMBL document CHEMBL1147859, “Thienopyrimidinone bis-aminopyrrolidine ureas as potent melanin-concentrating hormone receptor-1 (MCH-R1) antagonists” (Bioorg Med Chem Lett, 2007)

Experiments:
[1] = target: T1, Melanin-concentrating hormone receptor 1 (Homo sapiens, UniProt Q99705); assay: Binding affinity to human MCHR1
[2] = target: T1, Melanin-concentrating hormone receptor 1; assay: Antagonist activity at human MCHR1 by [35S]GTP-gamma-S binding assay; format: functional
Cytochrome P450 2D6 = Cytochrome P450 2D6 (Homo sapiens, UniProt P10635); assay: Inhibition of CYP2D6; format: ADME; details: for Activity: human
Sequence of Cytochrome P450 2D6 (P10635 whole entry): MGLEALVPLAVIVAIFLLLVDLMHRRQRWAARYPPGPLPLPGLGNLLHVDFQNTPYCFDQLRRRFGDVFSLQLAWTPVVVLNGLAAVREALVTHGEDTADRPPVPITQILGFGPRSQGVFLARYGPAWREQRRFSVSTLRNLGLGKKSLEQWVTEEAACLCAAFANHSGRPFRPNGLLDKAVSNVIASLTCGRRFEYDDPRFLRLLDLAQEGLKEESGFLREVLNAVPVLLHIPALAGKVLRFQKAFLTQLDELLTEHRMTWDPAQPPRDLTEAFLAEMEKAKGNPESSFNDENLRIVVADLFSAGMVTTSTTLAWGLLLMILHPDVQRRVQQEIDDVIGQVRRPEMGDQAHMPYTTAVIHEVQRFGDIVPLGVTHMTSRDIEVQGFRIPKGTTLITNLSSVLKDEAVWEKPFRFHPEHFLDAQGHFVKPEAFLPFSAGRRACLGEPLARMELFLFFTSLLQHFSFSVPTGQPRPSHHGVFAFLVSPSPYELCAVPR

[3] = Intrinsic clearance in human liver microsome; format: ADME; details: liver microsomes
CYP2D6 = CYP2D6 (Homo sapiens, UniProt P10635); assay: Inhibition of CYP2D6 at 120 uM; format: ADME
Sequence of CYP2D6 (P10635 whole entry): as above

T1 sequence (Q99705 whole entry): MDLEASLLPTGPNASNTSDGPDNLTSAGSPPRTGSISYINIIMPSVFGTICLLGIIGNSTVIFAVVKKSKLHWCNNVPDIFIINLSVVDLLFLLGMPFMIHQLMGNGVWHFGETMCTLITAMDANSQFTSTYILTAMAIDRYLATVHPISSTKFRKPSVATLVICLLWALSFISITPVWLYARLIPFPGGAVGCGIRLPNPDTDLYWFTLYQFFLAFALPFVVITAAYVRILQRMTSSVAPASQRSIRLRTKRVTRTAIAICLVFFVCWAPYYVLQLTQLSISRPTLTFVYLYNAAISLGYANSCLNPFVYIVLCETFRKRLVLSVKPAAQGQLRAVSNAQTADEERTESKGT

| Structure (SMILES) | Ki [1] [nM] | IC50 [2] [nM] | also measured |
| --- | --- | --- | --- |
| Cc1ccc(-c2cc3ncn([C@H]4CCN(C(=O)N(C)[C@H]5CCN(C)C5)C4)c(=O)c3s2)c(C)c1 | 49 |  |  |
| CN1CC[C@H](N(C)C(=O)N2CC[C@H](n3cnc4cc(-c5ccc(OC(F)(F)F)cc5)sc4c3=O)C2)C1 | 39 |  |  |
| COc1ccc(-c2cc3ncn([C@H]4CCN(C(=O)N(C)[C@H]5CCN(C)C5)C4)c(=O)c3s2)cc1 | 21 |  |  |
| COc1ccc(-c2cc3ncn([C@H]4CCN(C(=O)N(C)[C@H]5CCN(C)C5)C4)c(=O)c3s2)c(C)c1 | 46 |  |  |
| CN(C(=O)N1CC[C@H](n2cnc3cc(-c4ccc(Cl)cc4)sc3c2=O)C1)[C@H]1CCN(CC2CCOC2)C1 (some centres not stated) | 4 | 10 |  |
| CN1CC[C@H](N(C)C(=O)N2CC[C@H](n3cnc4cc(-c5ccc6c(c5)OCCO6)sc4c3=O)C2)C1 | 143 |  |  |
| CC(C)N1CC[C@H](N(C)C(=O)N2CC[C@H](n3cnc4cc(-c5ccc(Cl)cc5)sc4c3=O)C2)C1 | 5 | 23 |  |
| Cc1ccc(-c2cc3ncn([C@H]4CCN(C(=O)N(C)[C@H]5CCN(C6CCOCC6)C5)C4)c(=O)c3s2)cc1 | 14 |  |  |
| CCc1ccc(-c2cc3ncn([C@H]4CCN(C(=O)N(C)[C@H]5CCN(C6CCOCC6)C5)C4)c(=O)c3s2)cc1 | 8 |  | Activity (Cytochrome P450 2D6): 57 µM; CLint scaled [3]: 85 mL/min/kg |
| CN(C(=O)N1CC[C@H](n2cnc3cc(-c4ccc(Cl)cc4)sc3c2=O)C1)[C@H]1CCN(C2CCOCC2)C1 | 3 | 23 | IC50 (Cytochrome P450 2D6): 22500 nM; CLint scaled [3]: 24 mL/min/kg |
| CN(C(=O)N1CC[C@H](n2cnc3cc(-c4ccc(C(F)(F)F)cc4)sc3c2=O)C1)[C@H]1CCN(C2CCOCC2)C1 | 19 |  |  |
| CN(C(=O)N1CC[C@H](n2cnc3cc(-c4ccc(Cl)cc4)sc3c2=O)C1)[C@H]1CCN(C2CCCC2)C1 | 4 | 13 |  |
| CN(C(=O)N1CC[C@H](n2cnc3cc(-c4ccc(Cl)cc4)sc3c2=O)C1)[C@H]1CCN(CCC2CCOCC2)C1 | 7 | 11 |  |
| COc1ccc(-c2cc3ncn([C@H]4CCN(C(=O)N(C)[C@H]5CCN(C6CCOCC6)C5)C4)c(=O)c3s2)c(C)c1 | 28 |  |  |
| CCOc1ccc(-c2cc3ncn([C@H]4CCN(C(=O)N(C)[C@H]5CCN(C6CCOCC6)C5)C4)c(=O)c3s2)c(Cl)c1 | 14 |  |  |
| CN(C(=O)N1CC[C@H](n2cnc3cc(-c4ccc(Cl)cc4)sc3c2=O)C1)[C@H]1CCN(C2CCC(C)(C)CC2)C1 | 2 | 10 | IC50 (Cytochrome P450 2D6): 3400 nM |
| CN(C(=O)N1CC[C@H](n2cnc3cc(-c4ccc(Cl)cc4)sc3c2=O)C1)[C@H]1CCN(CC(=O)C(C)(C)C)C1 | 17 | 44 |  |
| CN(C(=O)N1CC[C@H](n2cnc3cc(-c4ccc(Cl)cc4)sc3c2=O)C1)[C@H]1CCN(CCCc2ccccc2)C1 | 6 | 31 | IC50 (Cytochrome P450 2D6): 8600 nM; CLint scaled [3]: 41 mL/min/kg |

| Structure (SMILES) | Ki [1] [nM] | IC50 [2] [nM] | also measured |
| --- | --- | --- | --- |
| CN(C(=O)N1CC[C@H](n2cnc3cc(-c4ccc(OC(F)(F)F)cc4)sc3c2=O)C1)[C@H]1CCN(C2CCOCC2)C1 | 18 |  |  |
| CN(C(=O)N1CC[C@@H](n2cnc3cc(-c4ccc(Cl)cc4)sc3c2=O)C1)[C@@H]1CCN(C2CCOCC2)C1 | 69 |  |  |
| Cc1ccc(-c2cc3ncn([C@H]4CCN(C(=O)N(C)[C@H]5CCN(C)C5)C4)c(=O)c3s2)cc1 | 15 |  |  |
| CCc1ccc(-c2cc3ncn([C@H]4CCN(C(=O)N(C)[C@H]5CCN(C)C5)C4)c(=O)c3s2)cc1 | 5 |  | inhibition at 120 µM (CYP2D6): 42%; CLint scaled [3]: 200 mL/min/kg |
| CN(C(=O)N1CC[C@H](n2cnc3cc(-c4ccc(Cl)cc4)sc3c2=O)C1)[C@H]1CCN(Cc2ccoc2)C1 | 4 | 15 |  |
| CN(C(=O)N1CC[C@H](n2cnc3cc(-c4ccc(Cl)cc4)sc3c2=O)C1)[C@H]1CCN(CC2CCCCC2)C1 | 50 | 53 |  |
| CN(C(=O)N1CC[C@H](n2cnc3cc(-c4ccc(Cl)cc4)sc3c2=O)C1)[C@H]1CCN(C2CCC2)C1 | 1 | 9 |  |
| CN(C(=O)N1CC[C@H](n2cnc3cc(-c4ccc(Cl)cc4)sc3c2=O)C1)[C@H]1CCN(CC2CC2)C1 | 3 | 10 |  |
| CN(C(=O)N1CC[C@H](n2cnc3cc(-c4ccc(Cl)cc4)sc3c2=O)C1)[C@H]1CCNC1 | 17 | 29 |  |
| CN1CC[C@H](N(C)C(=O)N2CC[C@H](n3cnc4cc(-c5ccc(Cl)cc5)sc4c3=O)C2)C1 | 10 | 20 | Activity (Cytochrome P450 2D6): 99 µM; CLint scaled [3]: 16 mL/min/kg |
| CN(C(=O)N1CC[C@@H](n2cnc3cc(-c4ccc(Cl)cc4)sc3c2=O)C1)[C@H]1CCN(C2CCOCC2)C1 | 154 |  |  |
| CN(C(=O)N1CC[C@H](n2cnc3cc(-c4ccc5c(c4)OCCO5)sc3c2=O)C1)[C@H]1CCN(C2CCOCC2)C1 | 45 |  |  |
| CN1CC[C@H](N(C)C(=O)N2CC[C@H](n3cnc4cc(-c5ccc(C(F)(F)F)cc5)sc4c3=O)C2)C1 | 17 |  |  |
| CN(C(=O)N1CC[C@H](n2cnc3cc(-c4ccc(Cl)cc4)sc3c2=O)C1)[C@H]1CCN(CC2CCOCC2)C1 | 7 | 11 |  |
| CCOc1ccc(-c2cc3ncn([C@H]4CCN(C(=O)N(C)[C@H]5CCN(C)C5)C4)c(=O)c3s2)c(Cl)c1 | 26 |  |  |
| Cc1ccc(-c2cc3ncn([C@H]4CCN(C(=O)N(C)[C@H]5CCN(C6CCOCC6)C5)C4)c(=O)c3s2)c(C)c1 | 70 |  |  |
| CN(C(=O)N1CC[C@H](n2cnc3cc(-c4ccc(Cl)cc4)sc3c2=O)C1)[C@H]1CCN(CC(=O)c2ccc(OC(F)(F)F)cc2)C1 | 80 |  |  |
| CN(C(=O)N1CCC(n2cnc3cc(-c4ccc(Cl)cc4)sc3c2=O)C1)[C@@H]1CCN(C2CCOCC2)C1 (single isomer, unassigned) | 21 |  |  |
